Results from PubChem BioAssay AID977628 (Broad Institute, 2014).
Inconclusive results are not listed. The source made the active and inactive calls.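 Rule for the calls: active = compound lowering the normal-ribosome reporter at least twice as much as the humanized-ribosome reporter, growth loss under a set limit; inconclusive = no clear call, values can overlap the other calls; inactive = the rest.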

Key:
Assay in all cases: E. coli growth inhibition, wild-type GFP versus h24 humanized RFP strain, dose response, h24 mutant RFP vs wild-type GFP, cherry-pick (AID 977628);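 note: wild-type GFP and h24 humanized RFP strains co-cultured 1 to 1 per well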
[1] = system: E. coli WT GFP strain growth, fluorescence, 24 h
[2] = system: E. coli mixed WT/h24 culture total growth, OD600, 24 h
[3] = system: E. coli h24 humanized mutant RFP strain growth, fluorescence, 24 h

Structure (SMILES)	AC50 [1]	AC50 [2] [µM]	AC50 [3] [µM]
Cc1oc(-c2ccc(-c3ccccc3)cc2)nc1CN(C)C1CCOC1 (stereo unspecified)	> 100 µM (inactive)	49.9	> 100
CCCCNC(=O)C[C@@H]1C[C@@]2(C(=O)OC)CCCCC=C2N(Cc2ccccc2)C1=O	> 100 µM (inactive)	> 100	> 100
COc1ccc2cc(CO)c3cc(OC)c(OC)cc3c2c1	> 100 µM (inactive)	> 100	> 100
NS(=O)(=O)c1cccc(NC(=O)c2cccc(-c3ccc(O)cc3)c2)c1	> 100 µM (inactive)	50.8	> 100
CCc1cccc(NC(=O)CCC(=O)N2CCSc3ccccc32)c1	> 100 µM (inactive)	41.7	> 100
COc1ccccc1CNC(=O)CN1C(=O)NC(c2ccccc2)(c2ccccc2)C1=O	> 100 µM (inactive)	> 100	> 100
O=C(O)c1cc(S(=O)(=O)N2CCN(C(c3ccccc3)c3ccccc3)CC2)ccc1Cl	> 100 µM (inactive)	> 100	> 100
C=CCNc1ccc2c(c1)OC[C@H](CC(C)C)NS2(=O)=O	> 100 µM (inactive)	> 100	> 100
CCOc1ccc(NC(=O)CN(C)CC(=O)Nc2ccc(Br)cc2F)cc1OCC	> 100 µM (inactive)	> 100	> 100
COc1ccccc1C(=O)Nc1cccc2cccnc12	> 100 µM (inactive)	> 100	10.2
CNC(=O)c1ccsc1NC(=O)c1ccc2c(c1)CCCC2	> 100 µM (inactive)	> 100	6.81
Cc1ccc(C(=O)Nc2cccc3[nH]c(C(F)(F)F)nc23)cc1	> 100 µM (inactive)	> 100	> 100
Nc1ccccc1Sc1ccc(C(F)(F)F)cc1[N+](=O)[O-]	> 100 µM (inactive)	52.3	> 100
Cc1cccc(S(=O)(=O)Nc2ccc(-c3cn4ccccc4n3)cc2)c1	> 100 µM (inactive)	29.7	> 100
Cc1cc(C)n2nc(C(=O)Nc3cccc(S(=O)(=O)N(C)c4ccccc4)c3)nc2n1	> 100 µM (inactive)	> 100	> 100
Cc1nnc2sc(SCC(=O)Nc3ccc(Br)cc3)nn2c1=O	> 100 µM (inactive)	> 100	> 100
Cc1nc(C)c(-c2ccn(S(=O)(=O)c3ccc(Cl)cc3)n2)o1	> 100 µM (inactive)	45.5	> 100
